Test results published in publication PMC8119466, “A screen of FDA-approved drugs identifies inhibitors of protein tyrosine phosphatase 4A3 (PTP4A3 or PRL-3)” (Scientific Reports, 2021).
Where a name gives a salt, the structure may show the parent alone.

Assays:
Format in all cases: biochemical
Conditions in all cases: FDA-approved drug screen
recombinant PRL-1 = biological target: T1, recombinant PRL-1 (Homo sapiens, UniProt Q93096); assay: In vitro phosphatase assay (DiFMUP hydrolysis), PRL-1; further: test concentration or dose not given here
T1 construct: 6xHis (N, cleaved yes); made in house; host or cells: E. coli One Shot BL21 Star
T1 sequence (Q93096 1-173): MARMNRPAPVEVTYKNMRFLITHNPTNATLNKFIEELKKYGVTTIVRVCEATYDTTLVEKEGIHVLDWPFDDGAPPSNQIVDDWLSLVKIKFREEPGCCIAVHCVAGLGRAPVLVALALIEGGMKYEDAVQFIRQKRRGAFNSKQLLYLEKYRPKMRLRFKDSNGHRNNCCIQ

recombinant PRL-3 = biological target: T2, recombinant PRL-3 (Homo sapiens, UniProt O75365); assay: In vitro phosphatase assay (DiFMUP hydrolysis), PRL-3; further: test concentration or dose not given here
T2 construct: 6xHis (N, cleaved yes); made in house; host or cells: E. coli One Shot BL21 Star

recombinant PRL-2 = biological target: T3, recombinant PRL-2 (Homo sapiens, UniProt Q12974); assay: In vitro phosphatase assay (DiFMUP hydrolysis), PRL-2;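 further: PRL-2 activity read as DiFMUP hydrolysis after 20 min at room temperature with drug, enzyme first pre-reduced at 4 °C for 20 min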
T3 construct: 6xHis (N, cleaved yes); made in house; host or cells: E. coli One Shot BL21 Star
T3 sequence (Q12974 1-167): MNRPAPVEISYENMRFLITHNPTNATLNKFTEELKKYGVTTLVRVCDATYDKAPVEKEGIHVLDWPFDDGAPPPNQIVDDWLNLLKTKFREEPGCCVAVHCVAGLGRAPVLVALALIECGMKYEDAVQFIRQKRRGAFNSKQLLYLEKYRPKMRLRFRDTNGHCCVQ

T2 sequence (O75365 whole entry): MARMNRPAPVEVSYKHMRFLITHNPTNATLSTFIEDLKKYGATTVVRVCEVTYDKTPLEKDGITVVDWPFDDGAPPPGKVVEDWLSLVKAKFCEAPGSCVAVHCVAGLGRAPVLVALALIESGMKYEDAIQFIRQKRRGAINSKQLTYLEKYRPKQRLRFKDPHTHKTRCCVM

SMILES | % Phosphatase Activity (compared to DMSO) PRL-1 (recombinant PRL-1; compared to DMSO) [%] | % Phosphatase Activity (compared to DMSO) PRL-3 (recombinant PRL-3; compared to DMSO) [%] | % Phosphatase Activity (compared to DMSO) PRL-2 (recombinant PRL-2; compared to DMSO) [%] | % Phosphatase Activity (compared to DMSO) PRL-1 (recombinant PRL-1; activity compared to DMSO) [%] | % Phosphatase Activity (compared to DMSO) PRL-3 (recombinant PRL-3; activity compared to DMSO) [%] | % Phosphatase Activity (compared to DMSO) PRL-2 (recombinant PRL-2; activity compared to DMSO) [%]
O=c1[nH]c2ccccc2n1CCCN1CCC(n2c(=O)[nH]c3cc(Cl)ccc32)CC1 [Domperidone] | 118 | 79 | 112 | – | – | –
CCCCOc1ccc(C(=O)CCN2CCCCC2)cc1 [Dyclonine HCl] | 91 | 102 | 103 | – | – | –
NC12CC3CC(CC(C3)C1)C2 [Amantadine HCl] | 117 | 88 | 127 | – | – | –
Cc1cnc(C(=O)O)c[n+]1[O-] [Acipimox] | 97 | 95 | 102 | – | – | –
COc1c2occc2cc2ccc(=O)oc12 [Methoxsalen] | 81 | 78 | 99 | – | – | –
c1ccc(CC2=NCCN2)cc1 [Tolazoline HCl] | – | – | – | 100 | 91 | 110
N#Cc1ccc(C(c2ccc(C#N)cc2)n2cncn2)cc1 [Letrozole] | 94 | 74 | 85 | – | – | –
COCCCOc1ccnc(C[S+]([O-])c2nc3ccccc3[n-]2)c1C.[Na+] (stereo not drawn) [Rebeprazole sodium] | 97 | 78 | 99 | – | – | –
O=C(O)CCNC(=O)c1ccccc1 [Betamipron] | 98 | 75 | 95 | – | – | –
C[C@]12CC[C@H]3[C@@H](CC[C@@]45O[C@@H]4C(O)=C(C#N)C[C@]35C)[C@@H]1CC[C@@H]2O [Trilostane] | – | – | – | 97 | 88 | 110
CCCNS(=O)(=O)Nc1ncnc(OCCOc2ncc(Br)cn2)c1-c1ccc(Br)cc1 [Macitentan] | 93 | 85 | 75 | – | – | –
N#CC1(c2ccc(NC(=O)c3cccnc3NCc3ccncc3)cc2)CCCC1 [Apatinib] | 100 | 88 | 106 | – | – | –
COc1c(C)c2c(c(O)c1C/C=C(\C)CCC(=O)OCCN1CCOCC1)C(=O)OC2 [Mycophenolate Mofetil] | 131 | 102 | 125 | – | – | –
CCCCc1nc(Cl)c(CO)n1Cc1ccc(-c2ccccc2-c2nnn[n-]2)cc1.[K+] [Losartan Potassium (DuP 753)] | 94 | 71 | 93 | – | – | –
c1cn2cc(-c3ccc4cn[nH]c4c3)nc(Nc3ccc(N4CCOCC4)cc3)c2n1 [GS-9973] | 294 | 104 | 209 | – | – | –
CC(C(=O)O)c1ccc2c(c1)Cc1cccnc1O2 (stereo not drawn) [Pranoprofen] | 97 | 92 | 87 | – | – | –
C[C@H]1CNCCCN1S(=O)(=O)c1cccc2cncc(F)c12 [Ripasudil (K-115)] | 95 | 96 | 94 | – | – | –
